Results from ChEMBL document CHEMBL1141668, “Synthesis and biological activity of imidazopyridine anticoccidial agents: Part II” (Eur J Med Chem, 2008).

Assays:
Eimeria tenella [1] = test: Anticoccidial activity against Eimeria tenella in chickens assessed as reduction of oocysts at 3.1 ppm measured after 8 days by ExMAC assay relative to untreated control; type: functional; set-up: scale not given: the % may be the effect or the level left
Eimeria acervulina [2] = test: Anticoccidial activity against Eimeria acervulina in chickens assessed as reduction of oocysts at 3.1 ppm measured after 8 days by ExMAC assay relative to untreated control; type: functional; set-up: scale not given: the % may be the effect or the level left
Eimeria maxima [3] = test: Anticoccidial activity against Eimeria maxima in chickens assessed as reduction of oocysts at 3.1 ppm measured after 8 days by ExMAC assay relative to untreated control; type: functional; set-up: scale not given: the % may be the effect or the level left
[4] = target: cGMP-dependent protein kinase (Eimeria tenella, UniProt Q8MMZ8); test: Inhibition of Eimeria tenella cGMP-dependent protein kinase
Eimeria mitis [5] = test: Anticoccidial activity against Eimeria mitis in chickens assessed as reduction of oocysts at 6.25 ppm measured after 8 days by ExMAC assay relative to untreated control; type: functional; set-up: scale not given: the % may be the effect or the level left
Eimeria tenella [6] = test: Anticoccidial activity against Eimeria tenella in chickens assessed as reduction of oocysts at 6.25 ppm measured after 8 days by ExMAC assay relative to untreated control; type: functional; set-up: scale not given: the % may be the effect or the level left
Eimeria mitis [7] = test: Anticoccidial activity against Eimeria mitis in chickens assessed as reduction of oocysts at 3.1 ppm measured after 8 days by ExMAC assay relative to untreated control; type: functional; set-up: scale not given: the % may be the effect or the level left
Eimeria acervulina [8] = test: Anticoccidial activity against Eimeria acervulina in chickens assessed as reduction of oocysts at 6.25 ppm measured after 8 days by ExMAC assay relative to untreated control; type: functional; set-up: scale not given: the % may be the effect or the level left
Eimeria maxima [9] = test: Anticoccidial activity against Eimeria maxima in chickens assessed as reduction of oocysts at 6.25 ppm measured after 8 days by ExMAC assay relative to untreated control; type: functional; set-up: scale not given: the % may be the effect or the level left
Eimeria tenella [10] = test: Anticoccidial activity against Eimeria tenella in chickens assessed as reduction of oocysts at 2 ppm measured after 8 days by ExMAC assay relative to untreated control; type: functional; set-up: scale not given: the % may be the effect or the level left
Eimeria maxima [11] = test: Anticoccidial activity against Eimeria maxima in chickens assessed as reduction of oocysts at 2 ppm measured after 8 days by ExMAC assay relative to untreated control; type: functional; set-up: scale not given: the % may be the effect or the level left
Eimeria acervulina [12] = test: Anticoccidial activity against Eimeria acervulina in chickens assessed as reduction of oocysts at 1 ppm measured after 8 days by ExMAC assay relative to untreated control; type: functional; set-up: scale not given: the % may be the effect or the level left
Eimeria mitis [13] = test: Anticoccidial activity against Eimeria mitis in chickens assessed as reduction of oocysts at 4 ppm measured after 8 days by ExMAC assay relative to untreated control; type: functional; set-up: scale not given: the % may be the effect or the level left
Eimeria acervulina [14] = test: Anticoccidial activity against Eimeria acervulina in chickens assessed as reduction of oocysts at 2 ppm measured after 8 days by ExMAC assay relative to untreated control; type: functional; set-up: scale not given: the % may be the effect or the level left
Eimeria maxima [15] = test: Anticoccidial activity against Eimeria maxima in chickens assessed as reduction of oocysts at 1 ppm measured after 8 days by ExMAC assay relative to untreated control; type: functional; set-up: scale not given: the % may be the effect or the level left
Eimeria mitis [16] = test: Anticoccidial activity against Eimeria mitis in chickens assessed as reduction of oocysts at 2 ppm measured after 8 days by ExMAC assay relative to untreated control; type: functional; set-up: scale not given: the % may be the effect or the level left
Eimeria maxima [17] = test: Anticoccidial activity against Eimeria maxima in chickens assessed as reduction of oocysts at 4 ppm measured after 8 days by ExMAC assay relative to untreated control; type: functional; set-up: scale not given: the % may be the effect or the level left
Eimeria mitis [18] = test: Anticoccidial activity against Eimeria mitis in chickens assessed as reduction of oocysts at 1 ppm measured after 8 days by ExMAC assay relative to untreated control; type: functional; set-up: scale not given: the % may be the effect or the level left
Eimeria acervulina [19] = test: Anticoccidial activity against Eimeria acervulina in chickens assessed as reduction of oocysts at 8 ppm measured after 8 days by ExMAC assay relative to untreated control; type: functional; set-up: scale not given: the % may be the effect or the level left
Eimeria maxima [20] = test: Anticoccidial activity against Eimeria maxima in chickens assessed as reduction of oocysts at 8 ppm measured after 8 days by ExMAC assay relative to untreated control; type: functional; set-up: scale not given: the % may be the effect or the level left
Eimeria mitis [21] = test: Anticoccidial activity against Eimeria mitis in chickens assessed as reduction of oocysts at 8 ppm measured after 8 days by ExMAC assay relative to untreated control; type: functional; set-up: scale not given: the % may be the effect or the level left
Eimeria tenella [22] = test: Anticoccidial activity against Eimeria tenella in chickens assessed as reduction of oocysts at 8 ppm measured after 8 days by ExMAC assay relative to untreated control; type: functional; set-up: scale not given: the % may be the effect or the level left
Eimeria maxima [23] = test: Anticoccidial activity against Eimeria maxima in chickens assessed as reduction of oocysts at 12.5 ppm measured after 8 days by ExMAC assay relative to untreated control; type: functional; set-up: scale not given: the % may be the effect or the level left
Eimeria acervulina [24] = test: Anticoccidial activity against Eimeria acervulina in chickens assessed as reduction of oocysts at 12.5 ppm measured after 8 days by ExMAC assay relative to untreated control; type: functional; set-up: scale not given: the % may be the effect or the level left
Eimeria maxima [25] = test: Anticoccidial activity against Eimeria maxima in chickens assessed as reduction of oocysts at 25 ppm measured after 8 days by ExMAC assay relative to untreated control; type: functional; set-up: scale not given: the % may be the effect or the level left
Eimeria mitis [26] = test: Anticoccidial activity against Eimeria mitis in chickens assessed as reduction of oocysts at 12.5 ppm measured after 8 days by ExMAC assay relative to untreated control; type: functional; set-up: scale not given: the % may be the effect or the level left
Eimeria tenella [27] = test: Anticoccidial activity against Eimeria tenella in chickens assessed as reduction of oocysts at 12.5 ppm measured after 8 days by ExMAC assay relative to untreated control; type: functional; set-up: scale not given: the % may be the effect or the level left
Eimeria tenella [28] = test: Anticoccidial activity against Eimeria tenella in chickens assessed as reduction of oocysts at 25 ppm measured after 8 days by ExMAC assay relative to untreated control; type: functional; set-up: scale not given: the % may be the effect or the level left
Eimeria mitis [29] = test: Anticoccidial activity against Eimeria mitis in chickens assessed as reduction of oocysts at 25 ppm measured after 8 days by ExMAC assay relative to untreated control; type: functional; set-up: scale not given: the % may be the effect or the level left
Eimeria acervulina [30] = test: Anticoccidial activity against Eimeria acervulina in chickens assessed as reduction of oocysts at 25 ppm measured after 8 days by ExMAC assay relative to untreated control; type: functional; set-up: scale not given: the % may be the effect or the level left
Eimeria mitis [31] = test: Anticoccidial activity against Eimeria mitis in chickens assessed as reduction of oocysts at 6 ppm measured after 8 days by ExMAC assay relative to untreated control; type: functional; set-up: scale not given: the % may be the effect or the level left
Eimeria maxima [32] = test: Anticoccidial activity against Eimeria maxima in chickens assessed as reduction of oocysts at 6 ppm measured after 8 days by ExMAC assay relative to untreated control; type: functional; set-up: scale not given: the % may be the effect or the level left
Eimeria maxima [33] = test: Anticoccidial activity against Eimeria maxima in chickens assessed as reduction of oocysts at 3 ppm measured after 8 days by ExMAC assay relative to untreated control; type: functional; set-up: scale not given: the % may be the effect or the level left
Eimeria mitis [34] = test: Anticoccidial activity against Eimeria mitis in chickens assessed as reduction of oocysts at 3 ppm measured after 8 days by ExMAC assay relative to untreated control; type: functional; set-up: scale not given: the % may be the effect or the level left
Eimeria maxima [35] = test: Anticoccidial activity against Eimeria maxima in chickens assessed as reduction of oocysts at 12 ppm measured after 8 days by ExMAC assay relative to untreated control; type: functional; set-up: scale not given: the % may be the effect or the level left
Eimeria tenella [36] = test: Anticoccidial activity against Eimeria tenella in chickens assessed as reduction of oocysts at 3 ppm measured after 8 days by ExMAC assay relative to untreated control; type: functional; set-up: scale not given: the % may be the effect or the level left
Eimeria mitis [37] = test: Anticoccidial activity against Eimeria mitis in chickens assessed as reduction of oocysts at 12 ppm measured after 8 days by ExMAC assay relative to untreated control; type: functional; set-up: scale not given: the % may be the effect or the level left
Eimeria acervulina [38] = test: Anticoccidial activity against Eimeria acervulina in chickens assessed as reduction of oocysts at 6 ppm measured after 8 days by ExMAC assay relative to untreated control; type: functional; set-up: scale not given: the % may be the effect or the level left
Eimeria tenella [39] = test: Anticoccidial activity against Eimeria tenella in chickens assessed as reduction of oocysts at 6 ppm measured after 8 days by ExMAC assay relative to untreated control; type: functional; set-up: scale not given: the % may be the effect or the level left
Eimeria acervulina [40] = test: Anticoccidial activity against Eimeria acervulina in chickens assessed as reduction of oocysts at 12 ppm measured after 8 days by ExMAC assay relative to untreated control; type: functional; set-up: scale not given: the % may be the effect or the level left
Eimeria tenella [41] = test: Anticoccidial activity against Eimeria tenella in chickens assessed as reduction of oocysts at 12 ppm measured after 8 days by ExMAC assay relative to untreated control; type: functional; set-up: scale not given: the % may be the effect or the level left
Eimeria acervulina [42] = test: Anticoccidial activity against Eimeria acervulina in chickens assessed as reduction of oocysts at 3 ppm measured after 8 days by ExMAC assay relative to untreated control; type: functional; set-up: scale not given: the % may be the effect or the level left

Chain of cGMP-dependent protein kinase (Q8MMZ8 whole entry): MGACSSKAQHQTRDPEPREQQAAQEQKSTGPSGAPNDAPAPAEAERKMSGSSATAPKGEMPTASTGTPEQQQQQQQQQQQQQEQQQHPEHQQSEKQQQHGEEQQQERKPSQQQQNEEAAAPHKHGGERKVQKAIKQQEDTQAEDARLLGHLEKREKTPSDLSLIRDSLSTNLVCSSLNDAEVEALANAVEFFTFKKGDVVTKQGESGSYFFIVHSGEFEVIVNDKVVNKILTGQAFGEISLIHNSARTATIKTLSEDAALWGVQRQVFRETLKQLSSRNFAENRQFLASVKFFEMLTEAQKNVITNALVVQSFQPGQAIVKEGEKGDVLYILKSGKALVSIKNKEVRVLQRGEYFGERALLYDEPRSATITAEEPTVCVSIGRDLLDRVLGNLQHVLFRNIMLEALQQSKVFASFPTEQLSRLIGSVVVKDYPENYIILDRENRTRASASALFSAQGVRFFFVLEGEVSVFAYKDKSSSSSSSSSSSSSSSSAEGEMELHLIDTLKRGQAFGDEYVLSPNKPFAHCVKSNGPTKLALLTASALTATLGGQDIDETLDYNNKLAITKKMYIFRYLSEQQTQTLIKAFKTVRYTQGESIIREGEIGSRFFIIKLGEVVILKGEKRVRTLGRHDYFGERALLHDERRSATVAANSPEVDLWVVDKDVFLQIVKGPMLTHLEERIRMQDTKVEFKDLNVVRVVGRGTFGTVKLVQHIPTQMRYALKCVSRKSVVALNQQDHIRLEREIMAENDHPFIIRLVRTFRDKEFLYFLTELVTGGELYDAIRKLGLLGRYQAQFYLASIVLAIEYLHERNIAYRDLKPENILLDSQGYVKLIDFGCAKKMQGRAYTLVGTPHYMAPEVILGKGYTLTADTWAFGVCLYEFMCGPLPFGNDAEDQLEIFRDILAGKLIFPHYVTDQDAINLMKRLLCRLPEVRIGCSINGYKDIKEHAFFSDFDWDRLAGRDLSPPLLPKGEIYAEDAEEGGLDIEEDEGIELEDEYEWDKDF

`CC(c1ccn2c(-c3ccnc(N)n3)c(-c3ccc(F)cc3)nc2c1)N(C)C` (configuration not stated) gave an Activity (Eimeria tenella [1]) of 100%, an Activity (Eimeria acervulina [2]) of 80% and an Activity (Eimeria maxima [3]) of 100%. The IC50 [4] was 0.09 nM, the Activity (Eimeria mitis [5]) was 100% and the Activity (Eimeria tenella [6]) was 100%. The Activity (Eimeria mitis [7]) was 80%, the Activity (Eimeria acervulina [8]) was 100% and the Activity (Eimeria maxima [9]) was less than 50%.

Work on `CC(c1ccn2c(-c3ccnc(N)n3)c(-c3ccc(F)cc3)nc2c1)N(C)C` (single isomer, unassigned; enantiomer A) yielded an Activity (Eimeria tenella [10]) of less than 50%, an Activity (Eimeria maxima [11]) of 50% and an Activity (Eimeria acervulina [12]) of less than 50%. For the same compound, the IC50 [4] was 0.28 nM, the Activity (Eimeria mitis [13]) was less than 50% and the Activity (Eimeria acervulina [14]) was less than 50%. The Activity (Eimeria maxima [15]) was 50%, the Activity (Eimeria mitis [16]) was less than 50% and the Activity (Eimeria maxima [17]) was less than 50%. The Activity (Eimeria mitis [18]) was 50%.

In the case of `CN(C)C(C)(C)c1ccn2c(-c3ccnc(N)n3)c(-c3ccc(F)cc3)nc2c1`, the Activity (Eimeria acervulina [19]) is reported as 100%, the Activity (Eimeria maxima [20]) is reported as 100% and the IC50 [4] is reported as 0.11 nM. The Activity (Eimeria mitis [5]) was 80%, the Activity (Eimeria tenella [6]) was 100% and the Activity (Eimeria mitis [21]) was less than 50%. The Activity (Eimeria tenella [22]) was 100%, the Activity (Eimeria acervulina [8]) was 100% and the Activity (Eimeria maxima [9]) was 80%.

For `CN(C)CCc1ccn2c(-c3ccnc(N)n3)c(-c3ccc(F)cc3)nc2c1`, the Activity (Eimeria maxima [23]) was 100%, the Activity (Eimeria acervulina [24]) was 100% and the IC50 [4] was 0.46 nM. For the same compound, the Activity (Eimeria maxima [25]) was 100%, the Activity (Eimeria mitis [5]) was less than 50% and the Activity (Eimeria tenella [6]) was 100%. For the same compound, the Activity (Eimeria mitis [26]) was 80%, the Activity (Eimeria tenella [27]) was 100% and the Activity (Eimeria tenella [28]) was 100%. The Activity (Eimeria mitis [29]) was 100%, the Activity (Eimeria acervulina [8]) was 80% and the Activity (Eimeria acervulina [30]) was 100%. For the same compound, the Activity (Eimeria maxima [9]) was 50%.

`CC(C)(N)c1ccn2c(-c3ccnc(N)n3)c(-c3ccc(F)cc3)nc2c1` showed an Activity (Eimeria mitis [31]) of less than 50%, an IC50 [4] of 0.145 nM and an Activity (Eimeria maxima [32]) of 80%. For the same compound, the Activity (Eimeria maxima [33]) was 80%, the Activity (Eimeria mitis [34]) was less than 50% and the Activity (Eimeria maxima [35]) was 100%. For the same compound, the Activity (Eimeria tenella [36]) was less than 50%, the Activity (Eimeria mitis [37]) was less than 50% and the Activity (Eimeria acervulina [38]) was 80%. The Activity (Eimeria tenella [39]) was 80%, the Activity (Eimeria acervulina [40]) was 80% and the Activity (Eimeria tenella [41]) was 100%. It also gave an Activity (Eimeria acervulina [42]) of 50%.

In the case of `Nc1nccc(-c2c(-c3ccc(F)cc3)nc3cc(C4CCN(CCO)CC4)ccn23)n1`, the Activity (Eimeria maxima [23]) is reported as 80%, the Activity (Eimeria acervulina [24]) is reported as 50% and the IC50 [4] is reported as 0.044 nM. For the same compound, the Activity (Eimeria maxima [25]) was 50%, the Activity (Eimeria mitis [5]) was less than 50% and the Activity (Eimeria tenella [6]) was 99%. It also gave an Activity (Eimeria mitis [26]) of 80%, an Activity (Eimeria tenella [27]) of 99% and an Activity (Eimeria tenella [28]) of 99%. For the same compound, the Activity (Eimeria mitis [29]) was less than 50%, the Activity (Eimeria acervulina [8]) was less than 50% and the Activity (Eimeria acervulina [30]) was 99%. The Activity (Eimeria maxima [9]) was less than 50%.
